{"source": "patent US10023543B2", "about": "(CELGENE QUANTICEL RESEARCH, INC., priority 2014, dated 2018)", "note": "pIC50: −log10 of the molar value."}
{"tested_on": "THP-1 (AML) cells", "assay": "LSD1 CD11b cellular assay (flow cytometry)", "format": "cell-based", "conditions": "Homo sapiens, THP-1, 96 h; CD11b expressing cells, 4 days; read-out: THP-1 IC50"}
{"molecule": "COc1ccc(-c2c(-c3ccc(C#N)c(F)c3)nc(N3CC[C@@H](N)[C@@H](F)C3)n(C)c2=O)cc1", "note": "[Example 78, 4-[2-((4R,3S)-4-amino-3-fluoro-piperidin-1-yl)-5-(4-methoxy-phenyl)-1-methyl-6-oxo-1,6-dihydro-pyrimidin-4-yl]-2-fluoro-benzonitrile]", "pIC50": "> 7.00"}
{"molecule": "COc1ccc(-c2c(-c3ccc(C#N)c(F)c3)nc(N3CCNCC3)n(C)c2=O)cc1F", "note": "[Example 47, 2-fluoro-4-[5-(3-fluoro-4-methoxy-phenyl)-1-methyl-6-oxo-2-piperazin-1-yl-1,6-dihydro-pyrimidin-4-yl]-benzonitrile]", "pIC50": "6.00 to 7.00"}
{"molecule": "Cc1ccc(-c2c(-c3ccc(C#N)c(F)c3)nc(N3CCC(N(C)C)CC3)n(C)c2=O)cn1", "note": "[Example 82, 4-[2-(4-dimethylamino-piperidin-1-yl)-1-methyl-5-(6-methyl-pyridin-3-yl)-6-oxo-1,6-dihydro-pyrimidin-4-yl]-2-fluoro-benzonitrile]", "pIC50": "6.00 to 7.00"}
{"molecule": "Cn1c(N2CCC(N)CC2)nc(-c2ccc(C#N)c(F)c2)c(-c2ccc(C(F)(F)F)nc2)c1=O", "note": "[Example 23, 4-{2-(4-aminopiperidyl)-1-methyl-6-oxo-5-[6-(trifluoromethyl) (3-pyridyl)]hydropyrimidin-4-yl}-2-fluorobenzenecarbonitrile]", "pIC50": "> 7.00"}
{"molecule": "Cn1c(N2CCC(N)CC2)nc(-c2ccc(C#N)c(F)c2)cc1=O", "note": "[Example 108, 4-[2-(4-aminopiperidin-1-yl)-1-methyl-6-oxopyrimidin-4-yl]-2-fluorobenzonitrile]", "pIC50": "6.00 to 7.00"}
{"molecule": "Cn1c(N2CCC(N)CC2)nc(-c2ccc(C#N)c(F)c2)c(-c2ccc3cc[nH]c3c2)c1=O", "note": "[Example 75, 4-[2-(4-amino-piperidin-1-yl)-5-(1H-indol-6-yl)-1-methyl-6-oxo-1,6-dihydro-pyrimidin-4-yl]-2-fluoro-benzonitrile]", "pIC50": "> 7.00"}
{"molecule": "CNC1CCN(c2nc(-c3ccc(C#N)c(F)c3)c(-c3ccc(OC)c(F)c3)c(=O)n2C)CC1", "note": "[Example 12, 2-fluoro-4-[5-(3-fluoro-4-methoxy-phenyl)-1-methyl-2-(4-methylamino-piperidin-1-yl)-6-oxo-1,6-dihydro-pyrimidin-4-yl]-benzonitrile]", "pIC50": "> 7.00"}
{"molecule": "Cn1c(N2CCC(N)CC2)nc(-c2ccc(C#N)c(F)c2)c(-c2ccc3cn[nH]c3c2)c1=O", "note": "[Example 77, 4-[2-(4-amino-piperidin-1-yl)-5-(1H-indazol-6-yl)-1-methyl-6-oxo-1,6-dihydro-pyrimidin-4-yl]-2-fluoro-benzonitrile]", "pIC50": "> 7.00"}
{"molecule": "COc1ccc(-c2c(-c3ccc(C#N)c(F)c3)nc(N3CCCNCC3)n(C)c2=O)cc1F", "note": "[Example 46, 4-[2-[1,4]diazepan-1-yl-5-(3-fluoro-4-methoxy-phenyl)-1-methyl-6-oxo-1,6-dihydro-pyrimidin-4-yl]-2-fluoro-benzonitrile]", "pIC50": "> 7.00"}
{"molecule": "COc1ccc(-c2c(-c3ccc(C#N)cc3)nc(NC3CCNCC3)n(C)c2=O)cc1F", "note": "[Example 48, 4-[5-(3-fluoro-4-methoxy-phenyl)-1-methyl-6-oxo-2-(piperidin-4-ylamino)-1,6-dihydro-pyrimidin-4-yl]-benzonitrile]", "pIC50": "6.00 to 7.00"}
{"molecule": "C#Cc1c(-c2ccc(C#N)c(F)c2)nc(N2CCC(N)CC2)n(C)c1=O", "note": "[Example 110]", "pIC50": "6.00 to 7.00"}
{"molecule": "COc1ccc(-c2c(-c3ccc(C#N)c(F)c3)nc(N3CC(N)C3)n(C)c2=O)cc1", "note": "[Example 64, 4-[2-(3-amino-azetidin-1-yl)-5-(4-methoxy-phenyl)-1-methyl-6-oxo-1,6-dihydro-pyrimidin-4-yl]-2-fluoro-benzonitrile]", "pIC50": "6.00 to 7.00"}
{"molecule": "Cn1c(N2CCC(N)CC2)nc(-c2ccc(C#N)c(F)c2)c(-c2ccc3ccn(C)c3c2)c1=O", "note": "[Example 76, 4-[2-(4-amino-piperidin-1-yl)-1-methyl-5-(1-methyl-1H-indol-6-yl)-6-oxo-1,6-dihydro-pyrimidin-4-yl]-2-fluoro-benzonitrile]", "pIC50": "> 7.00"}
{"molecule": "COc1ncc(-c2c(-c3ccc(C#N)c(F)c3)nc(N3CCC(N)CC3)n(C)c2=O)cc1F", "note": "[Example 26, 4-[2-(4-aminopiperidyl)-5-(5-fluoro-6-methoxy(3-5,6-dihydropyridyl))-1-methyl-6-oxohydropyrimidin-4-yl]-2-fluorobenzenecarbonitrile]", "pIC50": "> 7.00"}
{"molecule": "CN(C)c1ccc(-c2c(-c3ccc(C#N)c(F)c3)nc(N3CCC(N)CC3)n(C)c2=O)cc1", "note": "[Example 59, 4-[2-(4-amino-piperidin-1-yl)-5-(4-dimethylamino-phenyl)-1-methyl-6-oxo-1,6-dihydro-pyrimidin-4-yl]-2-fluoro-benzonitrile]", "pIC50": "> 7.00"}
{"molecule": "COc1ccc(-c2c(-c3ccc(C#N)c(F)c3)nc(N3CC[C@@H](N)C3)n(C)c2=O)cc1F", "note": "[Example 27, 4-[2-((3R)-3-aminopyrrolidinyl)-5-(3-fluoro-4-methoxyphenyl)-1-methyl-6-oxohydropyrimidin-4-yl]-2-fluorobenzenecarbonitrile]", "pIC50": "> 7.00"}
{"molecule": "CCOc1ccc(-c2c(-c3ccc(C#N)c(F)c3)nc(N3CCC(N)CC3)n(C)c2=O)cc1", "note": "[Example 95, 4-[2-(4-aminopiperidin-1-yl)-5-(4-ethoxyphenyl)-1-methyl-6-oxopyrimidin-4-yl]-2-fluorobenzonitrile]", "pIC50": "> 7.00"}
{"molecule": "CN(C)c1ncc(-c2c(-c3ccc(C#N)c(F)c3)nc(N3CCC(N)CC3)n(C)c2=O)cn1", "note": "[Example 49, 4-[2-(4-amino-piperidin-1-yl)-2′-dimethylamino-1-methyl-6-oxo-1,6-dihydro-[5,5′]bipyrimidinyl-4-yl]-2-fluoro-benzonitrile]", "pIC50": "> 7.00"}
{"molecule": "COc1ccc(-c2c(-c3ccc(C#N)c(F)c3)nc(N3CC(CN)C3)n(C)c2=O)cc1", "note": "[Example 69, 4-[2-(3-aminomethyl-azetidin-1-yl)-5-(4-methoxy-phenyl)-1-methyl-6-oxo-1,6-dihydro-pyrimidin-4-yl]-2-fluoro-benzonitrile]", "pIC50": "6.00 to 7.00"}
{"molecule": "COc1ccc(-c2c(-c3ccc(C#N)c(F)c3)nc(NC[C@H]3CCNC3)n(C)c2=O)cc1", "note": "[Example 51, 2-fluoro-4-{5-(4-methoxy-phenyl)-1-methyl-6-oxo-2-[(3S)-(pyrrolidin-3-ylmethyl)-amino]-1,6-dihydro-pyrimidin-4-yl}-benzonitrile]", "pIC50": "6.00 to 7.00"}
{"molecule": "Cn1c(N2CCC(N)CC2)nc(-c2ccc(C#N)c(F)c2)c(-c2ccc(N)cc2)c1=O", "note": "[Example 89, 4-[5-(4-aminophenyl)-2-(4-aminopiperidin-1-yl)-1-methyl-6-oxopyrimidin-4-yl]-2-fluorobenzonitrile]", "pIC50": "> 7.00"}
{"molecule": "CN(C)C1CCN(c2nc(-c3ccc(C#N)c(F)c3)c(-c3ccc4cn(C)nc4c3)c(=O)n2C)CC1", "note": "[Example 80, 4-[2-(4-dimethylamino-piperidin-1-yl)-1-methyl-5-(2-methyl-2H-indazol-6-yl)-6-oxo-1,6-dihydro-pyrimidin-4-yl]-2-fluoro-benzonitrile]", "pIC50": "> 7.00"}
{"molecule": "Cn1c(N2CCC(N)CC2)nc(-c2ccc(C#N)c(F)c2)c(-c2ccc3occc3c2)c1=O", "note": "[Example 18, 4-[2-(4-amino-piperidin-1-yl)-5-benzofuran-5-yl-1-methyl-6-oxo-1,6-dihydro-pyrimidin-4-yl]-2-fluoro-benzonitrile]", "pIC50": "> 7.00"}
{"molecule": "CNC(=O)c1ccc(-c2c(-c3ccc(C#N)cc3)nc(N3CCC(N)CC3)n(C)c2=O)cc1F", "note": "[Example 40, {4-[2-(4-aminopiperidyl)-6-(4-cyanophenyl)-3-methyl-4-oxo(3-hydropyrimidin-5-yl)]-2-fluorophenyl}-N-methylcarboxamide]", "pIC50": "6.00 to 7.00"}
